Measurements taken from publication PMC3469775 (Journal of medicinal chemistry, 2012).

Target: T1, human placental aromatase (Homo sapiens, UniProt P11511)
T1 sequence (P11511 1-503): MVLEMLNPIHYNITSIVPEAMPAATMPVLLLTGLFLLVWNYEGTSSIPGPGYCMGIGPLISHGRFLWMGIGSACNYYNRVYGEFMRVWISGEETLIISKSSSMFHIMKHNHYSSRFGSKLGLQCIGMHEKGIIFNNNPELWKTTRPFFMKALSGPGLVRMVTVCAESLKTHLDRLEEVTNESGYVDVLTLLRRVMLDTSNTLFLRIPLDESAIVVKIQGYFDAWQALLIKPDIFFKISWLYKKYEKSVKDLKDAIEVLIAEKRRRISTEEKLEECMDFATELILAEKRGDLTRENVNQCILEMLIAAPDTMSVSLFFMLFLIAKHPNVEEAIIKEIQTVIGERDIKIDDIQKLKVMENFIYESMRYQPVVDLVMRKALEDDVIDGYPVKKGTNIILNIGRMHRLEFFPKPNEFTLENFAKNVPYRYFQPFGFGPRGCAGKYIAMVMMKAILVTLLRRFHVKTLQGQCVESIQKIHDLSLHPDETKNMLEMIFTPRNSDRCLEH
Experiment: Inhibition of purified human placental aromatase
Type: biochemical
Conditions: for fold less potent than the AIs (IC50): compared with the AIs; for IC50 (in words): purified placental aromatase

Structure (SMILES) | fold less potent than the AIs (IC50) | IC50 (in words) | inhibition at 300 µM (read-out: inhibition of the enzyme activity)
CO[C@@H]1C[C@@H]2[C@H](CC[C@]3(C)C(=O)CC[C@@H]23)[C@@]2(C)C=CC(=O)C=C12 [Compound 2, (6R,8R,9S,10R,13S,14S)-6-Methoxy-10,13-dimethyl-7,8,9,10,11,12,13,14,15,16-decahydro-3H-cyclopenta[a]-phenanthrene-3,17(6H)-dione] | about 1000 fold | several micromolar | –
CCO[C@@H]1C[C@@H]2[C@H](CC[C@]3(C)C(=O)CC[C@@H]23)[C@@]2(C)C=CC(=O)C=C12 [Compound 3, (6R,8R,9S,10R,13S,14S)-6-Ethoxy-10,13-dimethyl-7,8,9,10,11,12,13,14,15,16-decahydro-3H-cyclopenta[a]-phenanthrene-3,17(6H)-dione] | about 1000 fold | several micromolar | –
CC#CCO[C@@H]1C[C@@H]2[C@H](CC[C@]3(C)C(=O)CC[C@@H]23)[C@@]2(C)C=CC(=O)C=C12 [Compound 4, (6R,8R,9S,10R,13S,14S)-6-(But-2-ynyloxy)-10,13-dimethyl-7,8,9,10,11,12,13,14,15,16-decahydro-3H-cyclopenta[a]-phenanthrene-3,17(6H)-dione] | – | – | 93%
